Measurements: patent US10010607B2, “Method for preparing viral particles with cyclic dinucleotide and use of said particles for inducing immune response” (priority 2014, dated 2018)

What was measured:
HEK293 cells = format: cell-based, human; settings: for IFN induction by HIV-1-GFP from inhibitor-treated cGAS-reconstituted producer cells: 20 μM GW4869 or 60 μM Ac-DEVD-CHO during virus preparation; for IFN response in target cells in the presence of inhibitor: HEK293 cells infected with HIV-1-GFP from cGAS expressing cells, inhibitor 5 μM 1 hour prior to infection
IFNβ promoter reporter = format: cell-based, human; settings: HEK293 cells transfected with 2 μg 2′-3′-cGAMP, 24 hours

Row | Molecule | IFN induction by HIV-1-GFP from inhibitor-treated cGAS-reconstituted producer cells (HEK293 cells) | IFN response in target cells in the presence of inhibitor (HEK293 cells) | other results
1 | O=C(/C=C/c1ccc(/C=C/C(=O)Nc2ccc(C3=NCCN3)cc2)cc1)Nc1ccc(C2=NCCN2)cc1 [GW4869] | did not diminish IFN induction |  | 
2 | Nc1nc2c(ncn2[C@@H]2O[C@@H]3COP(=O)(O)O[C@H]4[C@@H](O)[C@H](n5cnc6c(N)ncnc65)O[C@@H]4COP(=O)(O)O[C@@H]2[C@@H]3O)c(=O)[nH]1 [cGAMP, 2′-3′-cyclic GMP-AMP] |  |  | IFN induction in response to cGAMP (IFNβ promoter reporter) (IFNβ promoter reporter): induce IFN
3 | Cc1ccnc2c1NC(=O)c1cccnc1N2C1CC1 [nevirapine] |  | independent | 
4 | Cc1nnc(C(=O)NC(C)(C)c2nc(C(=O)NCc3ccc(F)cc3)c(O)c(=O)n2C)o1 [raltegravir] |  | independent | 
5 | Ac-DEVD-CHO | did not diminish IFN induction |  | 
